Measured values as given in US9113629B2, “4-amino-6-(4-substituted-phenyl)-picolinates and 6-amino-2-(4-substituted-phenyl)-pyrimidine-4-carboxylates and their use as herbicides” (DOW AGROSCIENCES LLC, priority 2013, dated 2015).
Where two headings read alike, the source gives them in different places.

Columns and labels:
[1] = system: Key Grass and Sedge Weeds as well as Grass Crops; assay: Post-emergent Test II herbicidal activity (Table 6); format: in vivo; settings: post-emergence, 336 h; for pest or weed control at 70 g/ha: 70 g ai/ha; for pest or weed control at 140 g/ha: 140 g ai/ha
Outline: (§1)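 Greenhouse-grown plants at first or second true leaf stage were sprayed post-emergence with compound in acetone/DMSO-based aqueous spray containing crop oil concentrate and surfactant, at 187 L/ha, highest rate plus ½× to 1/16× dilutions. After 14 d, injury was scored visually versus untreated plants, 0 (none) to 100% (complete kill).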

[2] = system: Key Broadleaf Weed and Crop Species; assay: Post-emergent Test II herbicidal activity (Table 5); format: in vivo; settings: post-emergence, 336 h, 14 days after application; for pest or weed control at 70 g/ha: application rate 70 g ai/ha; for pest or weed control at 140 g/ha: application rate 140 g ai/ha
Outline: as §1

[3] = CYPES: yellow nutsedge (Cyperus esculentus), read-out: Visual Growth Reduction (%) 14 Days After Application, CYPES
[4] = DIGSA: crabgrass (Digitaria sanguinalis), read-out: Visual Growth Reduction (%) 14 Days After Application, DIGSA
[5] = ECHCG: barnyardgrass (Echinochloa crus-galli), read-out: Visual Growth Reduction (%) 14 Days After Application, ECHCG
[6] = ORYSA: rice (Oryza sativa), crop, read-out: Visual Growth Reduction (%) 14 Days After Application, ORYSA
[7] = SETFA: giant foxtail (Setaria faberi), read-out: Visual Growth Reduction (%) 14 Days After Application, SETFA
[8] = SORVU: grain sorghum (Sorghum vulgare), read-out: Visual Growth Reduction (%) 14 Days After Application, SORVU
[9] = TRZSS (wheat, Triticum aestivum), crop, read-out: Visual Growth Reduction (%) 14 Days After Application, TRZSS
[10] = ZEAMX: maize, corn (Zea mays), crop, read-out: Visual Growth Reduction (%) 14 Days After Application, ZEAMX
[11] = ABUTH: velvetleaf (Abutilon theophrasti), read-out: Visual Growth Reduction (%) 14 Days After Application, ABUTH
[12] = AMARE: redroot pigweed (Amaranthus retroflexus), read-out: Visual Growth Reduction (%) 14 Days After Application, AMARE
[13] = BRSNN: oilseed-rape, canola (Brassica napus), read-out: Visual Growth Reduction (%) 14 Days After Application, BRSNN
[14] = CHEAL: lambsquarters (Chenopodium album), read-out: Visual Growth Reduction (%) 14 Days After Application, CHEAL
[15] = EPHHL: wild poinsettia (Euphorbia heterophylla), read-out: Visual Growth Reduction (%) 14 Days After Application, EPHHL
[16] = HELAN: sunflower (Helianthus annuus), read-out: Visual Growth Reduction (%) 14 Days After Application, HELAN
[17] = VIOTR: wild pansy (Viola tricolor), read-out: Visual Growth Reduction (%) 14 Days After Application, VIOTR

SMILES	pest or weed control at 70 g/ha [1, 3] [%]	pest or weed control at 140 g/ha [1, 3] [%]	pest or weed control at 70 g/ha [1, 4] [%]	pest or weed control at 140 g/ha [1, 4] [%]	pest or weed control at 70 g/ha [1, 5] [%]	pest or weed control at 140 g/ha [1, 5] [%]	pest or weed control at 70 g/ha [1, 6] [%]	pest or weed control at 140 g/ha [1, 6] [%]	pest or weed control at 70 g/ha [1, 7] [%]	pest or weed control at 140 g/ha [1, 7] [%]	pest or weed control at 70 g/ha [1, 8] [%]	pest or weed control at 140 g/ha [1, 8] [%]	pest or weed control at 70 g/ha [1, 9] [%]	pest or weed control at 140 g/ha [1, 9] [%]	pest or weed control at 70 g/ha [1, 10] [%]	pest or weed control at 140 g/ha [1, 10] [%]	pest or weed control at 70 g/ha [2, 11] [%]	pest or weed control at 140 g/ha [2, 11] [%]	pest or weed control at 70 g/ha [2, 12] [%]	pest or weed control at 140 g/ha [2, 12] [%]	also measured
Nc1cc(-c2ccc(C(F)(F)F)c(F)c2F)nc(C(=O)O)c1Cl [Compound 172, 4-amino-3-chloro-6-(2,3-difluoro-4-(trifluoromethyl)phenyl)picolinic acid]	95 to 100	95 to 100	75 to 84	75 to 84	95 to 100	95 to 100	0 to 29	0 to 29	95 to 100	95 to 100	75 to 84	75 to 84	45 to 59	60 to 74	95 to 100	95 to 100	95 to 100	95 to 100	95 to 100	95 to 100	pest or weed control at 70 g/ha [2, 13]: 75 to 84%; pest or weed control at 140 g/ha [2, 13]: 75 to 84%; pest or weed control at 70 g/ha [2, 14]: 85 to 94%; pest or weed control at 140 g/ha [2, 14]: 85 to 94%; pest or weed control at 70 g/ha [2, 15]: 95 to 100%; pest or weed control at 140 g/ha [2, 15]: 95 to 100%; pest or weed control at 70 g/ha [2, 16]: 95 to 100%; pest or weed control at 140 g/ha [2, 16]: 95 to 100%; pest or weed control at 70 g/ha [2, 17]: 45 to 59%; pest or weed control at 140 g/ha [2, 17]: 60 to 74%; melting point: 161 °C
Nc1c(F)c(-c2ccc(C(F)(F)F)c(F)c2F)nc(C(=O)O)c1Cl [Compound 167]	85 to 94	95 to 100	75 to 84	75 to 84	95 to 100	95 to 100	0 to 29	0 to 29	85 to 94	95 to 100	85 to 94	85 to 94	60 to 74	60 to 74	75 to 84	85 to 94	85 to 94	95 to 100	95 to 100	95 to 100	pest or weed control at 70 g/ha [2, 13]: 95 to 100%; pest or weed control at 140 g/ha [2, 13]: 95 to 100%; pest or weed control at 70 g/ha [2, 14]: 95 to 100%; pest or weed control at 140 g/ha [2, 14]: 95 to 100%; pest or weed control at 70 g/ha [2, 15]: 95 to 100%; pest or weed control at 140 g/ha [2, 15]: 95 to 100%; pest or weed control at 70 g/ha [2, 16]: 95 to 100%; pest or weed control at 140 g/ha [2, 16]: 95 to 100%; pest or weed control at 70 g/ha [2, 17]: 95 to 100%; pest or weed control at 140 g/ha [2, 17]: 85 to 94%; melting point: 69 to 70 °C
